Tests used:
Gly158Arg human NTCP = settings: ref [54]; cited from earlier work
From the text: (§1) We aligned the sequence of human NTCP to that of Cynomolgus monkey and Common squirrel monkey, which are representatives of the Old and New World monkeys, respectively (Fig. 6a and Supplementary Fig. 6).

human NTCP = target: T1, human NTCP (Homo sapiens, UniProt Q14973); test: preS1-AX568 binding to HEK-NTCP cells (and its inhibition by TC); assay type: cell-based; settings: preincubation with 250 µM TC
T1 construct: The full-length wild-type human NTCP gene (UniProt ID: Q14973); expressed in transfected cells
T1 sequence (Q14973 1-349): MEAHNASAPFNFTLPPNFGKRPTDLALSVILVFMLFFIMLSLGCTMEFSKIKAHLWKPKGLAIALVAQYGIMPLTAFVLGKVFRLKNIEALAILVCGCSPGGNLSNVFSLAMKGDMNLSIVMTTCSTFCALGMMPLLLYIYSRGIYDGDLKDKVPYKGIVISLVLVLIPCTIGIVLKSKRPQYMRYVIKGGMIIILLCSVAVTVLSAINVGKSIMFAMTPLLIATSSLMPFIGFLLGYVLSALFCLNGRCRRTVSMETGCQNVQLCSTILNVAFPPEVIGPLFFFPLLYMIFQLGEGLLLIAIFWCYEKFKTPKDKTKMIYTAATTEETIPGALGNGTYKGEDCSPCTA
Method: Human embryonic kidney Flp-In T-Rex 293 cells (Thermo Fisher Scientific, R78007, hereafter referred to as non-NTCP expressing HEK293 cells) stably expressing the human NTCP protein were generated according to the manufacturer’s guidelines as reported before[62] and are hereafter referred to as HEK-NTCP cells. […] For induction of NTCP expression, HEK-NTCP cells were incubated with 1 μg/mL tetracycline (Carl Roth, HP63.1)[62]. […] Inhibitor preincubation was performed over 5 min at 37 °C, consistent with previously published data[64]. Quantification of relative fluorescence was assessed at 570 nm excitation and 615 nm emission on a fluorescence microplate reader (TECAN Life Sciences).

[1] = tested on: Gly158Arg Common squirrel monkey NTCP; settings: ref [54]; cited from earlier work
From the text: as §1

[2] = tested on: SVPs from patient K826 (HBV GtA); test: Binding of nanodisc-reconstituted NTCP-eYFP to SVPs of patient K826 (GtA); settings: 25–100 nM
Method: (§2) The lipids were then mixed with detergent-purified NTCP and incubated at room temperature for 5 min with gentle agitation. Next, membrane scaffold protein (MSP1D1) was added to the mixture and incubated for 20 min at room temperature. […] Bio-Beads were removed by passing through a gravity column (Bio-Rad), and the mixture was briefly spun at 4000 × g at 4 °C to remove excess lipids. […] Peak fractions containing nanodisc-reconstituted NTCP were collected and concentrated.
(§3) Subviral particles (SVPs) were isolated from plasma of two chronic HBV-infected patients by three consecutive ultracentrifugation steps according to published protocols[13]. Briefly, SVP were separated from virions using rate zonal ultracentrifugation through a sucrose density gradient. SVP-containing fractions were pooled and further purified using caesium chloride (CsCl) flotation ultracentrifugation. Pooled SVP-fractions were further purified using a second sucrose density gradient and concentrated by ultrafiltration. […] For fluorescence measurement, 100 μL HBS buffer was added to each well and the fluorescence intensity of eYFP was detected at 485 nm excitation and 535 nm emission on a fluorescence microplate reader (TECAN Life Sciences).

[3] = tested on: SVPs from patient ID1 (HBV GtD); test: Binding of nanodisc-reconstituted NTCP-eYFP to SVPs of patient ID1 (GtD); settings: 25–100 nM
Method: as §2, §3

Row | Compound | TC transport, effect of Gly158Arg mutation (Gly158Arg human NTCP) | block of preS1-AX568 binding to NTCP (in words) (human NTCP) | TC transport, effect of Gly158Arg mutation [1] | binding to GtA SVPs (in words) [2] | binding to GtD SVPs (in words) [3]
1 | C[C@H](CCC(=O)NCCS(=O)(=O)O)[C@H]1CC[C@H]2[C@@H]3[C@H](O)C[C@@H]4C[C@H](O)CC[C@]4(C)[C@H]3C[C@H](O)[C@]12C [TC, taurocholic acid] | maintaining the transport activity of NTCP for TC | can be blocked | maintaining the transport activity of NTCP for TC | – | –
2 | NTCP: nanodisc-reconstituted, eYFP-labeled wild-type human NTCP | – | – | – | concentration-dependent binding | concentration-dependent binding

From paper PMC10954734, “Structure of antiviral drug bulevirtide bound to hepatitis B and D virus receptor protein NTCP” (Nature Communications, 2024)
